Laboratory results taken from patent US9050345B2, “Pyrrolotriazines as potassium ion channel inhibitors” (BRISTOL-MYERS SQUIBB COMPANY, priority 2013, dated 2015).

biological target: T1, human KV 1.5 (IKur) (Homo sapiens, UniProt P22460); assay: block of IKur current in patch clamped L-929 cells expressing human Kv1.5; type: cell-based; details: 0.3 μM; patch clamped mammalian L-929 cells stably expressing human Kv1.5
T1 construct: expressed in transfected cells
T1 sequence (P22460 whole entry): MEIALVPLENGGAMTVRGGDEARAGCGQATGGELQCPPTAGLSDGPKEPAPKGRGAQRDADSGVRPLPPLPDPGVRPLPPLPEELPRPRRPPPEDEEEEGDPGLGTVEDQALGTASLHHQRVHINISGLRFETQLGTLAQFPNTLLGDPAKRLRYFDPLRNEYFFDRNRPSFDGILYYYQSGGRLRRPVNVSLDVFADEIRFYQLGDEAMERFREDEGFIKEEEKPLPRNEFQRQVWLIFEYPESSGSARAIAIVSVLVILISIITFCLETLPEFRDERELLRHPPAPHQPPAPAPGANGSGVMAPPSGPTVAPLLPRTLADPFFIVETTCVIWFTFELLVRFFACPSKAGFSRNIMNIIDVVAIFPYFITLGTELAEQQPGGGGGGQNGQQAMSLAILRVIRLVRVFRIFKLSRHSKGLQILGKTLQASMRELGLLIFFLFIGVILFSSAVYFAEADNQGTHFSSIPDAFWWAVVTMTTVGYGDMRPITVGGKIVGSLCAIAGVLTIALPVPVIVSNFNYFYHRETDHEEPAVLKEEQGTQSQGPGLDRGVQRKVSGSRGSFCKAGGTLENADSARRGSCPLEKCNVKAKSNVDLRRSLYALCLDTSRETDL

SMILES	KV1_5% Inh L929 @0.3 μM [%]
NS(=O)(=O)c1cncc(-c2nc(NC3CCCc4cccnc43)c3c(-c4ccccc4)ccn3n2)c1 (stereo not shown) [Example 171, 5-(5-phenyl-4-((5,6,7,8-tetrahydroquinolin-8-yl)amino)pyrrolo[2,1-f] [1,2,4]triazin-2-yl)pyridine-3-sulfonamide]	97.64

same assay, conditions: L929, 0.3 μM; patch clamped mammalian L-929 cells stably expressing human Kv1.5; read-out: KV1_5% Inh L929 @0.3 μM

SMILES	inhibition at 0.3 µM [%]
NS(=O)(=O)c1cncc(-c2nc(NCc3cnccn3)c3c(-c4ccccc4)ccn3n2)n1 [Example 154, 6-(5-phenyl-4-((pyrazin-2-ylmethyl)amino)pyrrolo [2,1-f][1,2,4]triazin-2-yl)pyrazine-2-sulfonamide]	89.5
NS(=O)(=O)c1cncc(-c2nc(NCCN3CCOCC3)c3c(-c4ccccc4)ccn3n2)c1 [Example 155, 5-(4-((2-morpholinoethyl)amino)-5-phenylpyrrolo [2,1-f][1,2,4]triazin-2-yl)pyridine-3-sulfonamide]	30.2
NS(=O)(=O)c1cncc(-c2nc(NCc3cnccn3)c3c(-c4ccccc4F)ccn3n2)c1 [Example 156, 5-(5-(2-fluorophenyl)-4-((pyrazin-2-ylmethyl)amino)pyrrolo [2,1-f][1,2,4]triazin-2-yl)pyridine-3-sulfonamide]	98.5
Oc1cc(-c2nc(NCc3ccccn3)c3c(-c4ccccc4)ccn3n2)ccn1 [Example 157, 4-(5-phenyl-4-((pyridin-2-ylmethyl)amino)pyrrolo [2,1-f][1,2,4]triazin-2-yl)pyridin-2-ol]	94.5
NS(=O)(=O)c1cncc(-c2nc(NCc3cccnc3)c3c(-c4ccccc4)ccn3n2)c1 [Example 158, 5-(5-phenyl-4-(pyridin-3-ylmethylamino)pyrrolo [1,2-f][1,2,4]triazin-2-yl)pyridine-3-sulfonamide]	92
NS(=O)(=O)c1cncc(-c2nc(NCc3ccncc3)c3c(-c4ccccc4)ccn3n2)c1 [Example 159]	90
NS(=O)(=O)c1cncc(-c2nc(NCc3cnccn3)c3c(-c4ccccc4)ccn3n2)c1 [Example 160, 5-(5-phenyl-4-(pyrazin-2-ylmethylamino)pyrrolo [1,2-f][1,2,4]triazin-2-yl)pyridine-3-sulfonamide]	94.7
Nc1cncc(-c2nc(NCc3cnccn3)c3c(-c4ccccc4)ccn3n2)c1 [Example 161, 2-(5-aminopyridin-3-yl)-5-phenyl-N-(pyrazin-2-ylmethyl)pyrrolo[1,2-f] [1,2,4]triazin-4-amine]	97.9
Nc1cncc(-c2nc(NCc3ncccn3)c3c(-c4ccccc4)ccn3n2)c1 [Example 162, 2-(5-aminopyridin-3-yl)-5-phenyl-N-(pyrimidin-2-ylmethyl)pyrrolo[2,1-f] [1,2,4]triazin-4-amine]	95.6
NS(=O)(=O)c1cncc(-c2nc(NCc3nccs3)c3c(-c4ccccc4)ccn3n2)c1 [Example 163, 5-(5-phenyl-4-((thiazol-2-ylmethyl)amino)pyrrolo [2,1-f][1,2,4]triazin-2-yl)pyridine-3-sulfonamide]	97.5
NS(=O)(=O)c1cncc(-c2nc(NCc3ccncn3)c3c(-c4ccccc4)ccn3n2)c1 [Example 165, 5-(5-phenyl-4-((pyrimidin-4-ylmethyl)amino)pyrrolo [2,1-f][1,2,4]triazin-2-yl)pyridine-3-sulfonamide]	90.3
NS(=O)(=O)c1cncc(-c2nc(NCc3ccccn3)c3c(-c4ccccc4F)ccn3n2)c1 [Example 166, 5-(5-(2-fluorophenyl)-4-((pyridin-2-ylmethyl)amino)pyrrolo [2,1-f][1,2,4]triazin-2-yl)pyridine-3-sulfonamide]	98
COC(=O)c1ccccc1CNc1nc(-c2cncc(S(N)(=O)=O)c2)nn2ccc(-c3ccccc3)c12 [Example 167, methyl 2-(((5-phenyl-2-(5-sulfamoylpyridin-3-yl)pyrrolo[2,1-f][1,2,4]triazin-4-yl)amino)methyl) benzoate]	89.8
N#Cc1ccccc1CNc1nc(-c2cncc(S(N)(=O)=O)c2)nn2ccc(-c3ccccc3)c12 [Example 168, 5-(4-((2-cyanobenzyl)amino)-5-phenylpyrrolo [2,1-f][1,2,4]triazin-2-yl)pyridine-3-sulfonamide]	86.8
NC(=O)c1ccccc1CNc1nc(-c2cncc(S(N)(=O)=O)c2)nn2ccc(-c3ccccc3)c12 [Example 169, 2-(((5-phenyl-2-(5-sulfamoylpyridin-3-yl)pyrrolo[2,1-f][1,2,4]triazin-4-yl)amino)methyl) benzamide]	62.2
NS(=O)(=O)c1cncc(-c2nc(NC3CCCc4cccnc43)c3c(-c4ccccc4)ccn3n2)c1 (stereo not shown) [Example 170, 5-(5-phenyl-4-((5,6,7,8-tetrahydroquinolin-8-yl)amino)pyrrolo[2,1-f] [1,2,4]triazin-2-yl)pyridine-3-sulfonamide]	96.4
NS(=O)(=O)c1cncc(-c2nc(NCc3nc4ccccc4s3)c3c(-c4ccccc4)ccn3n2)c1 [Example 172, 5-(4-((benzo[d]thiazol-2-ylmethyl)amino)-5-phenylpyrrolo [2,1-f][1,2,4]triazin-2-yl)pyridine-3-sulfonamide]	84.3
NS(=O)(=O)c1cncc(-c2nc(NCc3ncccc3F)c3c(-c4ccccc4F)ccn3n2)c1 [Example 173, 5-(5-(2-fluorophenyl)-4-(((3-fluoropyridin-2-yl)methyl)amino)pyrrolo [2,1-f][1,2,4]triazin-2-yl)pyridine-3-sulfonamide]	98.7
Cc1csc(CNc2nc(-c3cncc(S(N)(=O)=O)c3)nn3ccc(-c4ccccc4)c23)n1 [Example 174, 5-(4-(((4-methylthiazol-2-yl)methyl)amino)-5-phenylpyrrolo [2,1-f][1,2,4]triazin-2-yl)pyridine-3-sulfonamide]	97.2
COc1ncc(-c2nc(NCc3nc(C)cs3)c3c(-c4ccccc4)ccn3n2)cc1S(N)(=O)=O [Example 175, 2-methoxy-5-(4-(((4-methylthiazol-2-yl)methyl)amino)-5-phenylpyrrolo [2,1-f][1,2,4]triazin-2-yl)pyridine-3-sulfonamide]	97.1
Cc1cc(CNc2nc(-c3cncc(S(N)(=O)=O)c3)nn3ccc(-c4ccccc4)c23)no1 [Example 176, 5-(4-(((5-methylisoxazol-3-yl)methyl)amino)-5-phenylpyrrolo [2,1-f][1,2,4]triazin-2-yl)pyridine-3-sulfonamide]	96
CCOC(=O)CC(=O)Nc1cncc(-c2nc(NCc3cnccn3)c3c(-c4ccccc4)ccn3n2)c1 [Example 177, ethyl 3-oxo-3-((5-(5-phenyl-4-((pyrazin-2-ylmethyl)amino)pyrrolo [2,1-f][1,2,4]triazin-2-yl)pyridin-3-yl)amino) propanoate]	96.7
Nc1ccccc1CNc1nc(-c2cncc(S(N)(=O)=O)c2)nn2ccc(-c3ccccc3)c12 [Example 178, 5-(4-((2-aminobenzyl)amino)-5-phenylpyrrolo [2,1-f][1,2,4]triazin-2-yl)pyridine-3-sulfonamide]	99.2
CS(=O)(=O)Nc1ccccc1CNc1nc(-c2cncc(S(N)(=O)=O)c2)nn2ccc(-c3ccccc3)c12 [Example 179, 5-(4-((2-(methylsulfonamido)benzyl)amino)-5-phenylpyrrolo [2,1-f][1,2,4]triazin-2-yl)pyridine-3-sulfonamide]	90.1
